Experimental findings from patent US9149051B2, “Dairy composition with high-potency sweetener” (THE COCA-COLA COMPANY, priority 2005, dated 2015) are described below.

The series in a line: Rate of dissolution in H2O at 25° C. of rebaudioside A polymorph and amorphous forms. In kind it is physicochemical. The following applies: rating in words. The text has this: The purification of rebaudioside A by crystallization as described above results in the formation of at least three different polymorphs: Form 1: a rebaudioside A hydrate; Form 2: an anhydrous rebaudioside A; and Form 3: a rebaudioside A solvate. In addition to the at least three polymorph forms of rebaudioside A, the purification of rebaudioside A may result in the formation of an amorphous form of rebaudioside A, Form 4. The aqueous organic solution and temperature of the purification process influence the resulting polymorph and amorphous forms in the substantially pure rebaudioside A composition. FIGS. 1-5 are exemplary powder x-ray diffraction (XRPD) scans of the polymorph and amorphous forms of rebaudioside A: Form 1 (hydrate), Form 2 (anhydrate), Form 3A (methanol solvate), Form 3B (ethanol solvate), and Form 4 (amorphous), respectively.
For the substance rebaudioside A [Form 4], the “Rate of dissolution in H2O at 25° C.” value was “High”. On to rebaudioside A [Form 3], for which the “Rate of dissolution in H2O at 25° C.” value was “High”. As to rebaudioside A [Form 2], the “Rate of dissolution in H2O at 25° C.” value is reported as “Intermediate”. Next, rebaudioside A [Form 1]: “Very low”.
